Test results published in patent publication US20260015350A1, “AZAQUINAZOLINE PAN-KRAS INHIBITORS” (Mirati Therapeutics, Inc., priority 2022, published 2026).

Legend:
KRas^G12C = molecular target: T1, KRas^G12C (Homo sapiens, UniProt P01116, G12C); experiment: KRas binding assay (TR-FRET tracer displacement), KRas G12C; settings: TR-FRET tracer displacement, KRas G12C
T1 construct: Biotinylated KRas (corresponding to amino acids 1-169, produced at Accelegan Inc.); biotin (biotinylated); purchased Accelegan Inc

[1] = test system: KRas-mediated phosphorylation of ERK in AsPC-1 cells; experiment: Inhibition of KRas-mediated phosphorylation of ERK (Cisbio HTRF pERK), AsPC-1 cells; type: cell-based; settings: Homo sapiens; for inhibition at 0.1 µM: ASPC1, 3 h, single point, 100 nM compound, 3 hrs, AsPC-1 cells
Summary of the method: (§1)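 Compound treatment lasts 3 hrs on 6,000 seeded cells, testing 10 doses from a 10 uM top concentration in 3-fold decrements at 0.8% final DMSO. Trametinib at 0.2 uM defines the Min signal. Detection is HTRF on cold-lysed cell extracts.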

KRas^G12V = molecular target: T2, KRas^G12V (Homo sapiens, UniProt P01116, G12V); experiment: KRas binding assay (TR-FRET tracer displacement), KRas G12V
T2 construct: Biotinylated KRas (corresponding to amino acids 1-169, produced at Accelegan Inc.); biotin (biotinylated); purchased Accelegan Inc

KRas^G12A = molecular target: T3, KRas^G12A (Homo sapiens, UniProt P01116, G12A); experiment: KRas binding assay (TR-FRET tracer displacement), KRas G12A; settings: TR-FRET tracer displacement, KRas G12A
T3 construct: Biotinylated KRas (corresponding to amino acids 1-169, produced at Accelegan Inc.); biotin (biotinylated); purchased Accelegan Inc

KRas^G12R = molecular target: T4, KRas^G12R (Homo sapiens, UniProt P01116, G12R); experiment: KRas binding assay (TR-FRET tracer displacement), KRas G12R
T4 construct: Biotinylated KRas (corresponding to amino acids 1-169, produced at Accelegan Inc.); biotin (biotinylated); purchased Accelegan Inc

[2] = test system: KRas-mediated phosphorylation of ERK in HCT116 cells; experiment: Inhibition of KRas-mediated phosphorylation of ERK (Cisbio HTRF pERK), HCT116 cells; type: cell-based; settings: Homo sapiens, HCT-116, 3 h, single point, 100 nM compound, 3 hrs
Summary of the method: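 Phosphorylated ERK was quantified by HTRF using d2-conjugate and Cryptate antibodies added to lysates for 2 hrs at room temperature.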

[3] = test system: KRas-mediated phosphorylation of ERK in H460 cells; experiment: Inhibition of KRas-mediated phosphorylation of ERK (Cisbio HTRF pERK), H460 cells; type: cell-based; settings: Homo sapiens, NCI-H460, 3 h, single point, 100 nM compound, 3 hrs
Summary of the method: as §1

KRas^G12S = molecular target: T5, KRas^G12S (Homo sapiens, UniProt P01116, G12S); experiment: KRas binding assay (TR-FRET tracer displacement), KRas G12S; settings: TR-FRET tracer displacement, KRas G12S
T5 construct: Biotinylated KRas (corresponding to amino acids 1-169, produced at Accelegan Inc.); biotin (biotinylated); purchased Accelegan Inc

KRas^G12D = molecular target: T6, KRas^G12D (Homo sapiens, UniProt P01116, G12D); experiment: KRas binding assay (TR-FRET tracer displacement), KRas G12D
T6 construct: Biotinylated KRas (corresponding to amino acids 1-169, produced at Accelegan Inc.); biotin (biotinylated); purchased Accelegan Inc

KRas^WT = molecular target: T7, KRas^WT (Homo sapiens, UniProt P01116); experiment: KRas binding assay (TR-FRET tracer displacement), KRas WT; settings: TR-FRET tracer displacement, KRas WT
T7 construct: Biotinylated KRas (corresponding to amino acids 1-169, produced at Accelegan Inc.); biotin (biotinylated); purchased Accelegan Inc

[4] = test system: KRas-mediated phosphorylation of ERK in H727 cells; experiment: Inhibition of KRas-mediated phosphorylation of ERK (Cisbio HTRF pERK), H727 cells; type: cell-based; settings: Homo sapiens; for inhibition at 0.1 µM: NCI-H727, 3 h, single point, 100 nM compound, 3 hrs, H727 cells
Summary of the method: as §1

KRas^Q61H = molecular target: T8, KRas^Q61H (Homo sapiens, UniProt P01116, Q61H); experiment: KRas binding assay (TR-FRET tracer displacement), KRas Q61H; settings: TR-FRET tracer displacement, KRas Q61H
T8 construct: Biotinylated KRas (corresponding to amino acids 1-169, produced at Accelegan Inc.); biotin (biotinylated); purchased Accelegan Inc

KRas^G13D = molecular target: T9, KRas^G13D (Homo sapiens, UniProt P01116, G13D); experiment: KRas binding assay (TR-FRET tracer displacement), KRas G13D; settings: TR-FRET tracer displacement, KRas G13D
T9 construct: Biotinylated KRas (corresponding to amino acids 1-169, produced at Accelegan Inc.); biotin (biotinylated); purchased Accelegan Inc
T9 sequence (P01116 1-169 isoform P01116-2 G13D): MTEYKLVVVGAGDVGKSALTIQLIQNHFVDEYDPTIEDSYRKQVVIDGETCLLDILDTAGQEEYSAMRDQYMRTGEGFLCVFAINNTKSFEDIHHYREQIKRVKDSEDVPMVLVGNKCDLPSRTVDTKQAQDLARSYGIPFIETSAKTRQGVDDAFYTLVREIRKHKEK

T2 sequence (P01116 1-169 isoform P01116-2 G12V): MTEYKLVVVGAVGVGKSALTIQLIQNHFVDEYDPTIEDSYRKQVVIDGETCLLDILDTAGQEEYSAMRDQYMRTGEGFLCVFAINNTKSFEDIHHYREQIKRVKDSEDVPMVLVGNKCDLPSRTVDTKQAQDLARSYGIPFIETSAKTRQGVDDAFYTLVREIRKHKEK
T6 sequence (P01116 1-169 isoform P01116-2 G12D): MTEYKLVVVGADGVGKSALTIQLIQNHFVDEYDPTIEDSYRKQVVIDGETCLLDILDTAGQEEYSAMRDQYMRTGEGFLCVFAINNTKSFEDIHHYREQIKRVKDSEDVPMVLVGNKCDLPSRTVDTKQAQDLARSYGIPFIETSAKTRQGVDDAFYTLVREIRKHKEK
T3 sequence (P01116 1-169 isoform P01116-2 G12A): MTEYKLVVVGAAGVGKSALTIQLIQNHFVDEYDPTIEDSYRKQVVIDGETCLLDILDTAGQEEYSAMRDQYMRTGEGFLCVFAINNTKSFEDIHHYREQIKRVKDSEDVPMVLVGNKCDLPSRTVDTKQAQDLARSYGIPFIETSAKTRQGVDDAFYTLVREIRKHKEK
T4 sequence (P01116 1-169 isoform P01116-2 G12R): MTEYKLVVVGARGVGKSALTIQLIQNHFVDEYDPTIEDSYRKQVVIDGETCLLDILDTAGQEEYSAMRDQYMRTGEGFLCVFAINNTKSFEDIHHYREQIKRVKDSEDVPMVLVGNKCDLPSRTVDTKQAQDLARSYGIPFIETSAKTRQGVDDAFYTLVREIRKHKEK
T5 sequence (P01116 1-169 isoform P01116-2 G12S): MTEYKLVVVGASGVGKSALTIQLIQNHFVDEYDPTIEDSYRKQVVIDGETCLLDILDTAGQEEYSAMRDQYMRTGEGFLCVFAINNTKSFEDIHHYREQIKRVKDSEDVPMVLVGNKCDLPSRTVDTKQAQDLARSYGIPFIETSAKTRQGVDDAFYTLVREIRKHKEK
T8 sequence (P01116 1-169 isoform P01116-2 Q61H): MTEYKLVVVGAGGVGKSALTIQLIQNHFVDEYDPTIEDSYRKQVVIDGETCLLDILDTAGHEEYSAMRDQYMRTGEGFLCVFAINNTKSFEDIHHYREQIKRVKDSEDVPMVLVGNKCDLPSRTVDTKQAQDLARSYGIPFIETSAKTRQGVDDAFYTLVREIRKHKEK
T7 sequence (P01116 1-169 isoform P01116-2): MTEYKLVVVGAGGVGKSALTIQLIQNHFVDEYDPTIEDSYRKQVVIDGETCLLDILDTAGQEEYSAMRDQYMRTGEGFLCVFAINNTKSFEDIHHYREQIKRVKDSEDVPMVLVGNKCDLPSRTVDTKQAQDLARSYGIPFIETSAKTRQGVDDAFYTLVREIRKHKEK
T1 sequence (P01116 1-169 isoform P01116-2 G12C): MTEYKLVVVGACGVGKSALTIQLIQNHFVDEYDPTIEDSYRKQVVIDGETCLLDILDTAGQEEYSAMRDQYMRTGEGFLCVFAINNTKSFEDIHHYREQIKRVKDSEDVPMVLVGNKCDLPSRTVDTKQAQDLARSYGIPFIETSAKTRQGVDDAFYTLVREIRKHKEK

IC50 (KRas^G12C) [nM] | IC50 (KRas^G12V) [nM] | IC50 (KRas^G12A) [nM] | IC50 (KRas^G12R) [nM] | IC50 (KRas^G12S) [nM] | IC50 (KRas^G12D) [nM] | IC50 (KRas^WT) [nM] | IC50 (KRas^Q61H) [nM] | IC50 (KRas^G13D) [nM] | IC50 ([1]; ASPC1, AsPC-1 cells, HTRF pERK) [nM] | IC50 ([4]; NCI-H727, H727 cells, HTRF pERK) [nM] | SMILES | inhibition at 0.1 µM [1] [%] | inhibition at 0.1 µM [2] [%] | inhibition at 0.1 µM [3] [%] | inhibition at 0.1 µM [4] [%]
10600 | 11600 | 10300 | 20600 | 11600 | 8110 | 10500 | 11400 | 10500 | – | – | Cc1cc2[nH]nnc2c(-c2ncc3c(N4CCC[C@@](C)(O)C4)nc(OCC45CCCN4CCC5)nc3c2F)c1C [Example 734, (3R)-1-(7-(5,6-dimethyl-1H-benzo[d][1,2,3]triazol-4-yl)-8-fluoro-2-((hexahydro-1H-pyrrolizin-7a-yl)methoxy)pyrido[4,3-d]pyrimidin-4-yl)-3-methylpiperidin-3-ol] | -18 | -13 | -3 | -3
3130 | 2590 | 2680 | 3960 | 2770 | 1980 | 1840 | 3530 | 2140 | – | – | C[C@@]1(O)CCCN(c2nc(OCC34CCCN3CCC4)nc3c(F)c(-c4ccc(F)c5sc(N)nc45)ncc23)C1 [Example 735, (R)-1-(7-(2-amino-7-fluorobenzo[d]thiazol-4-yl)-8-fluoro-2-((hexahydro-1H-pyrrolizin-7a-yl)methoxy)pyrido[4,3-d]pyrimidin-4-yl)-3-methylpiperidin-3-ol] | 14 | -2 | 5 | -31
480 | 1920 | 717 | 4490 | 475 | 1320 | 665 | 746 | 471 | – | – | Cc1cc2c(c(-c3ncc4c(N5CCC[C@@](C)(O)C5)nc(OCC56CCCN5CCC6)nc4c3F)c1C)CC(=O)N2 [Example 784, 4-(8-fluoro-2-((hexahydro-1H-pyrrolizin-7a-yl)methoxy)-4-((R)-3-hydroxy-3-methylpiperidin-1-yl)pyrido[4,3-d]pyrimidin-7-yl)-5,6-dimethylindolin-2-one] | 19 | 9 | 9 | 0
9220 | 3740 | 8020 | 5650 | 5660 | 11700 | 10600 | 11000 | 7770 | – | – | Cc1c(O)cc(-c2ncc3c(N4C[C@@H]5C[C@H](C4)[C@H](O)C5)nc(OC[C@@]45CCCN4C[C@H](F)C5)nc3c2F)c2ccccc12 [Example 790, (1R,5R,6R)-3-(8-fluoro-2-(((2R,7aS)-2-fluorohexahydro-1H-pyrrolizin-7a-yl)methoxy)-7-(3-hydroxy-4-methylnaphthalen-1-yl)pyrido[4,3-d]pyrimidin-4-yl)-3-azabicyclo[3.2.1]octan-6-ol] | 9 | – | – | 15
25 | 16 | 21 | 31 | 18 | 10 | 26 | 23 | 12 | > 10000 | > 10000 | Cc1cc2[nH]nnc2c(-c2ncc3c(N4CCCC5(CNS(=O)(=O)N5)C4)nc(OCC45CCCN4CCC5)nc3c2F)c1C (stereo not shown) [Example 855, 7-(7-(5,6-dimethyl-1H-benzo[d][1,2,3]triazol-4-yl)-8-fluoro-2-((tetrahydro-1H-pyrrolizin-7a(5H)-yl)methoxy)pyrido[4,3-d]pyrimidin-4-yl)-2-thia-1,3,7-triazaspiro[4.5]decane 2,2-dioxide] | – | – | – | –
